# Read-outs that look alike come from different tables or passages of the source.
# Assays:
# [1] = test system: Yeasts; details: Part I, 1 g/l in apple juice pH 4.5, 25° C.
# [2] = test system: all microorganisms used
# [3] = test system: Clostridia; details: Part I, 1 g/l in apple juice pH 4.5, 25° C.
# [4] = test system: Thermophilic bacilli; details: Part I, 1 g/l in apple juice pH 4.5, 25° C.
# [5] = test system: Lactic acid bacteria; details: Part I, 1 g/l in apple juice pH 4.5, 25° C.
# [6] = test system: Gram-negative bacteria; details: Part I, 1 g/l in apple juice pH 4.5, 25° C.
# [7] = test system: Gram-positive bacteria; details: Part I, 1 g/l in apple juice pH 4.5, 25° C.
# [8] = test system: Bacilli; details: Part I, 1 g/l in apple juice pH 4.5, 25° C.
# [9] = test system: Acetic acid bacteria; details: Part I, 1 g/l in apple juice pH 4.5, 25° C.
# [10] = test system: Molds I; details: Part I, 1 g/l in apple juice pH 4.5, 25° C.
# [11] = sealed
# Text: Salts prepared as in example 1 were dried, stored under the specified conditions without the addition of other substances and checked at regular intervals visually for discoloration: […]
# [12] = test system: Molds II; details: Part I, 1 g/l in apple juice pH 4.5, 25° C.
# [13] = 1 day after inoculation (1.5 × 10^4)
# [14] = 3 days after inoculation (1.5 × 10^4)
# [15] = 7 days after inoculation (1.5 × 10^4)
# [16] = 14 days after inoculation (1.5 × 10^4)
structure (smiles),measurement,setting,value
C/C=C/C=C/C(=O)[O-].CCC(=O)[O-].[Ca+2] [calcium propionate sorbate],"Number of surviving microorganisms per g of contaminated sample, Yeasts",[1]; 1 day after inoculation (2.5 × 10^4),8.5 × 10^4 CFU/g
same,"Number of surviving microorganisms per g of contaminated sample, Yeasts",[1]; 3 days after inoculation (2.5 × 10^4),5.0 × 10^4 CFU/g
same,"Number of surviving microorganisms per g of contaminated sample, Yeasts",[1]; 7 days after inoculation (2.5 × 10^4),1.2 × 10^3 CFU/g
same,"Number of surviving microorganisms per g of contaminated sample, Yeasts",[1]; 14 days after inoculation (2.5 × 10^4),10 CFU/g
same,"Antimicrobial activity (words, general statement)",[2],inhibited particularly well
same,Preservative action against the microorganisms used,"[2]; 1 g/l in apple juice pH 4.5, up to 14 days","acts well and persistently against all microorganisms used, except for bacilli"
same,Preservative action compared with the single salts,"[2]; same concentration, 1 g/l in apple juice pH 4.5","acts surprisingly better than potassium sorbate (used at the same concentration), in particular against lactic acid bacteria, thermophilic bacilli, yeasts and some molds (molds group II)"
same,"Number of surviving microorganisms per g of contaminated sample, Clostridia",[3]; 1 day after inoculation (1.4 × 10^4),1.3 × 10^3 CFU/g
same,"Number of surviving microorganisms per g of contaminated sample, Clostridia",[3]; 3 days after inoculation (1.4 × 10^4),800 CFU/g
same,"Number of surviving microorganisms per g of contaminated sample, Clostridia",[3]; 7 days after inoculation (1.4 × 10^4),310 CFU/g
same,"Number of surviving microorganisms per g of contaminated sample, Clostridia",[3]; 14 days after inoculation (1.4 × 10^4),55 CFU/g
same,"Number of surviving microorganisms per g of contaminated sample, Thermophilic bacilli",[4]; 1 day after inoculation (1.3 × 10^4),1.1 × 10^3 CFU/g
same,"Number of surviving microorganisms per g of contaminated sample, Thermophilic bacilli",[4]; 3 days after inoculation (1.3 × 10^4),<100 CFU/g
same,"Number of surviving microorganisms per g of contaminated sample, Thermophilic bacilli",[4]; 7 days after inoculation (1.3 × 10^4),10 CFU/g
same,"Number of surviving microorganisms per g of contaminated sample, Thermophilic bacilli",[4]; 14 days after inoculation (1.3 × 10^4),5 CFU/g
same,"Number of surviving microorganisms per g of contaminated sample, Lactic acid bacteria",[5]; 1 day after inoculation (1.9 × 10^4),4.0 × 10^4 CFU/g
same,"Number of surviving microorganisms per g of contaminated sample, Lactic acid bacteria",[5]; 3 days after inoculation (1.9 × 10^4),3.2 × 10^5 CFU/g
same,"Number of surviving microorganisms per g of contaminated sample, Lactic acid bacteria",[5]; 7 days after inoculation (1.9 × 10^4),2.4 × 10^3 CFU/g
same,"Number of surviving microorganisms per g of contaminated sample, Lactic acid bacteria",[5]; 14 days after inoculation (1.9 × 10^4),130 CFU/g
same,"Number of surviving microorganisms per g of contaminated sample, Gram-negative bacteria",[6]; 1 day after inoculation (2.4 × 10^4),3.5 × 10^4 CFU/g
same,"Number of surviving microorganisms per g of contaminated sample, Gram-negative bacteria",[6]; 3 days after inoculation (2.4 × 10^4),1.7 × 10^3 CFU/g
same,"Number of surviving microorganisms per g of contaminated sample, Gram-negative bacteria",[6]; 7 days after inoculation (2.4 × 10^4),900 CFU/g
same,"Number of surviving microorganisms per g of contaminated sample, Gram-negative bacteria",[6]; 14 days after inoculation (2.4 × 10^4),<10 CFU/g
same,"Number of surviving microorganisms per g of contaminated sample, Gram-positive bacteria",[7]; 1 day after inoculation (2.6 × 10^4),7.0 × 10^4 CFU/g
same,"Number of surviving microorganisms per g of contaminated sample, Gram-positive bacteria",[7]; 3 days after inoculation (2.6 × 10^4),7.0 × 10^3 CFU/g
same,"Number of surviving microorganisms per g of contaminated sample, Gram-positive bacteria",[7]; 7 days after inoculation (2.6 × 10^4),400 CFU/g
same,"Number of surviving microorganisms per g of contaminated sample, Gram-positive bacteria",[7]; 14 days after inoculation (2.6 × 10^4),<10 CFU/g
same,"Number of surviving microorganisms per g of contaminated sample, Bacilli",[8]; [13],2.3 × 10^4 CFU/g
same,"Number of surviving microorganisms per g of contaminated sample, Bacilli",[8]; [14],1.4 × 10^3 CFU/g
same,"Number of surviving microorganisms per g of contaminated sample, Bacilli",[8]; [15],1.3 × 10^3 CFU/g
same,"Number of surviving microorganisms per g of contaminated sample, Bacilli",[8]; [16],50 CFU/g
same,"Number of surviving microorganisms per g of contaminated sample, Acetic acid bacteria",[9]; 1 day after inoculation (2.3 × 10^4),7.5 × 10^4 CFU/g
same,"Number of surviving microorganisms per g of contaminated sample, Acetic acid bacteria",[9]; 3 days after inoculation (2.3 × 10^4),2.1 × 10^6 CFU/g
same,"Number of surviving microorganisms per g of contaminated sample, Acetic acid bacteria",[9]; 7 days after inoculation (2.3 × 10^4),2.9 × 10^6 CFU/g
same,"Number of surviving microorganisms per g of contaminated sample, Acetic acid bacteria",[9]; 14 days after inoculation (2.3 × 10^4),1.1 × 10^6 CFU/g
same,"Number of surviving microorganisms per g of contaminated sample, Molds I",[10]; 1 day after inoculation (1.7 × 10^4),4.0 × 10^3 CFU/g
same,"Number of surviving microorganisms per g of contaminated sample, Molds I",[10]; 3 days after inoculation (1.7 × 10^4),700 CFU/g
same,"Number of surviving microorganisms per g of contaminated sample, Molds I",[10]; 7 days after inoculation (1.7 × 10^4),<100 CFU/g
same,"Number of surviving microorganisms per g of contaminated sample, Molds I",[10]; 14 days after inoculation (1.7 × 10^4),<10 CFU/g
same,Time after yellow-brown discoloration of a 1% strength aqueous solution,[11]; dark at 7° C.,>12 months/>12 months
same,Time after yellow-brown discoloration of the powder,[11]; dark at 7° C.,12 months/>12 months
same,Time after yellow-brown discoloration of a 1% strength aqueous solution,[11]; dark at 25° C.,>12 months/>12 months
same,Time after yellow-brown discoloration of the powder,[11]; dark at 25° C.,12 months/>12 months
same,Time after yellow-brown discoloration of a 1% strength aqueous solution,[11]; under sunlight at 7° C.,12 months/12 months
same,Time after yellow-brown discoloration of the powder,[11]; under sunlight at 7° C.,12 months/12 months
same,Time after yellow-brown discoloration of a 1% strength aqueous solution,[11]; under sunlight at 25° C.,12 months/12 months
same,Time after yellow-brown discoloration of the powder,[11]; under sunlight at 25° C.,12 months/12 months
same,"Number of surviving microorganisms per g of contaminated sample, Molds II",[12]; [13],1.1 × 10^3 CFU/g
same,"Number of surviving microorganisms per g of contaminated sample, Molds II",[12]; [14],80 CFU/g
same,"Number of surviving microorganisms per g of contaminated sample, Molds II",[12]; [15],50 CFU/g
same,"Number of surviving microorganisms per g of contaminated sample, Molds II",[12]; [16],<10 CFU/g

# Reference: US6693216B2, “Calcium double salts” (Nutrinova Nutrition Specialties & Food Ingredients GmbH, priority 2000, dated 2004)
